{"source": "patent US20240208954A1", "about": "“OXADIAZOLE COMPOUND, PREPARATION METHOD THEREFOR, PHARMACEUTICAL COMPOSITION AND USE THEREOF” (SHANGHAI INSTITUTE OF MATERIA MEDICA, CHINESE ACADEMY OF …, priority 2020, published 2024)", "key": {"[1]": {"system": "dextran sodium sulfate (DSS)-induced IBD model", "assay": "Pharmacological activity test in DSS-induced IBD model", "type": "in vivo, mice", "method": "The mice were randomly divided into […]: normal control group (Control,n=5), model control group (Model,n=11), positive compound BAF312 group (0.3 mg/kg,n=10), low dose group (0.03 mg/kg,n=10), medium dose group (0.3 mg/kg,n=10), high dose group (3 mg/kg, n=10), and each group was administered by gavage in a volume of 5 mL/kg once a day. DSS with an average molecular weight of 36000˜50000 Da was dissolved in drinking water to make 2% DSS solution, and the mice in the modeling group were allowed to drink it freely for 6 days, while the drug administration treatments were carried out simultaneously. The body weight, fecal hardness and occult blood of mice in each group were observed every day, and the scores of each index were summed to obtain the disease activity index of each animal. After 6 days of completion of modeling and drug administration, the modeling reagents were withdrawn for a 1-day remission period, and the mice were sacrificed by dislocation after blood was taken via the posterior ophthalmic plexus. Colon tissue and spleen were measured for length or weighed, part of the colon was fixed in 4% paraformaldehyde, and all tissues and serum were stored at −80° C."}, "S1P4": {"molecular_target": "T1, S1P4 (Homo sapiens, UniProt O95977)", "T1 sequence (O95977 1-384)": "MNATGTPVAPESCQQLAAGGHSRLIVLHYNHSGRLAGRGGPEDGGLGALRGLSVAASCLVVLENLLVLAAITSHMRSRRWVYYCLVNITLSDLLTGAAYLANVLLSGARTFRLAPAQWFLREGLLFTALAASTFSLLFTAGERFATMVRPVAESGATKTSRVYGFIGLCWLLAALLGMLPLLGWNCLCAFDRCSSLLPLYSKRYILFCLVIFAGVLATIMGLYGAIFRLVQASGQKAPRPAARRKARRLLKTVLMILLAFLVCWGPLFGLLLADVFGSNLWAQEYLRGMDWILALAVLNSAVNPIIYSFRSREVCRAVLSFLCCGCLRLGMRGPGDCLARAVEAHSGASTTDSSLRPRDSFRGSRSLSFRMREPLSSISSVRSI", "assay": "Subtype selectivity study, method of Experimental Example 1", "type": "cell-based", "method": "(§1) Experimental method: CHO-K1/Ga15/EDG1 cells stably expressing EDG1 receptor were cultured in a 10 cm culture dish in a 37° C./5% CO2incubator, and digested when the confluence rate reached 80%-85%. The cells in collected cell suspension were inoculated into 384 microtiter plates at appropriate density, and then placed in a 37° C./5% CO2 incubator and continue to incubate for at least 18 hours before using for experiments. After 18-20 hours, the cell culture plat was taken out and added with dye working solution, and then the plate was placed in a 37° C./5% CO2 incubator for 1 hour, and finally equilibrated at room temperature for 15 minutes. Positive agonist working solution was added, and RFU values were detected and recorded. The 384 microplates, cell plates and tip box with positive agonist working solution were placed into FLIPRTM TETRA and the agonist mode assay program was run with an overall assay time of 120 seconds. The positive agonist working fluid was added to the cell culture plate at the 21st second. 384 microplate, cell plate and gun head box containing the positive antagonist working fluid were put into the FLIPRTM TETRA. The antagonistic mode detection program, the overall detection time of the instrument was 120 seconds, and positive antagonist working solution was added to the cell culture plate at the 21st second. Data processing: Raw data were obtained via ScreenWorks (version 3.1) and saved as *FMD files on the […] computer network system. Data were collected and analyzed using Excel and GraphPad Prism 6 software programs. […] The four-parameter equation was as follows: y=Bottom+(Top-Bottom)/(1+10^((LogEC50/IC50-X)*HillSlope)), wherein X is the Log value of the concentration and Y was the inhibition rate. The S1P receptor selectivity was tested for different subtypes using the method described in Experimental Example 1."}, "S1P2": {"molecular_target": "S1P2 (Homo sapiens, UniProt O95136)", "sequence (O95136 whole entry, species assumed)": "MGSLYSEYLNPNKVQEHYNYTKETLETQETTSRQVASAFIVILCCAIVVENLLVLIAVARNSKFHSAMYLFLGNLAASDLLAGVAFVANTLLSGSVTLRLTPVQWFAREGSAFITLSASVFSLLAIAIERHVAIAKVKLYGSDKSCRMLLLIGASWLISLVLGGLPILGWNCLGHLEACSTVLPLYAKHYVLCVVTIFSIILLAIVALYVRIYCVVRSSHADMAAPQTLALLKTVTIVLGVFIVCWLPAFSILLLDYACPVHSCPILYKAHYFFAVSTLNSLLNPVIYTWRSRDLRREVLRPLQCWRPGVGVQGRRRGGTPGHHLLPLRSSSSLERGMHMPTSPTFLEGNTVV", "assay": "Subtype selectivity study, method of Experimental Example 1", "type": "cell-based", "method": "as §1"}, "S1P5": {"molecular_target": "S1P5 (Homo sapiens, UniProt Q9H228)", "sequence (Q9H228 whole entry, species assumed)": "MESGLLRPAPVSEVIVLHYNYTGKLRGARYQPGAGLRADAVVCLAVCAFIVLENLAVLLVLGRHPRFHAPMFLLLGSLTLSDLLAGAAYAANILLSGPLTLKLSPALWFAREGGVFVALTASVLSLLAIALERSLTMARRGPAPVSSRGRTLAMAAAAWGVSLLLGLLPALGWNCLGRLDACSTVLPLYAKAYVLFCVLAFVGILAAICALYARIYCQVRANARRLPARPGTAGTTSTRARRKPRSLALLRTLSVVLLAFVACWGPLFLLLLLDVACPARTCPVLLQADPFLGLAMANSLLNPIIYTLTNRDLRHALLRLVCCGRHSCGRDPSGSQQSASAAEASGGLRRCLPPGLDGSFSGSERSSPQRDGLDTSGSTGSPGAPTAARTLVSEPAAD", "assay": "Subtype selectivity study, method of Experimental Example 1", "type": "cell-based", "method": "as §1"}}, "note": "“Also recorded” adds a separate entry of the source."}
{"smiles": "CC(C)Oc1ccc(-c2nc(-c3ccc(CN4CC(C(=O)O)C4)c4ccccc34)no2)cc1C#N.Cl", "note": "[Compound A1, 1-((4-(5-(3-cyano-4-isopropoxyphenyl)-1,2,4-oxadiazol-3-yl)naphthalen-1-yl)methyl) azetidine-3-carboxylic acid hydrochloric acid]", "values": [{"measurement": "impaired crypt and inflammatory infiltration in colon sites", "setting": "[1]; H&E-stained colon sections, high/medium doses (3/0.3 mg/kg)", "result": "effectively improve"}, {"measurement": "overall effect in the IBD model", "setting": "[1]; concluding statement", "result": "significant anti-inflammatory as well as pathological ameliorating effects"}, {"measurement": "weight of the spleen", "setting": "[1]; high/medium/low doses", "result": "without affecting"}, {"measurement": "disease process (weight change, stool consistency, rectal bleeding, disease activity index)", "setting": "[1]; high/medium/low doses (3/0.3/0.03 mg/kg), gavage once a day, to different degrees", "result": "effective in alleviating; also recorded: alleviated"}, {"measurement": "shorten of colon length", "setting": "[1]; high/medium/low doses (3/0.3/0.03 mg/kg), to different degrees", "result": "effective in alleviating"}, {"measurement": "EC50", "setting": "S1P4", "result": "> 10", "unit": "µM"}, {"measurement": "EC50", "setting": "S1P2", "result": "> 10", "unit": "µM"}, {"measurement": "EC50", "setting": "S1P5", "result": 0.12, "unit": "µM"}]}
